Laboratory results from patent US20080207705A1, “Heteroaryl-Imidazole Derivatives as Cannabinoid CB1 Receptor Antagonists” (Green Cross Corporation, priority 2007, published 2008).

Each compound was assayed against T1, rat CB-1 receptor (Rattus norvegicus, UniProt P20272) (assay: rat CB-1 receptor binding protocol with [3H]CP-55940). Settings: not given.
T1 construct: The tissue obtained from the brain of SD rats was homogenized; from tissue; host or cells: brain of SD rats (membrane pellet of homogenate)
T1 sequence (P20272 whole entry): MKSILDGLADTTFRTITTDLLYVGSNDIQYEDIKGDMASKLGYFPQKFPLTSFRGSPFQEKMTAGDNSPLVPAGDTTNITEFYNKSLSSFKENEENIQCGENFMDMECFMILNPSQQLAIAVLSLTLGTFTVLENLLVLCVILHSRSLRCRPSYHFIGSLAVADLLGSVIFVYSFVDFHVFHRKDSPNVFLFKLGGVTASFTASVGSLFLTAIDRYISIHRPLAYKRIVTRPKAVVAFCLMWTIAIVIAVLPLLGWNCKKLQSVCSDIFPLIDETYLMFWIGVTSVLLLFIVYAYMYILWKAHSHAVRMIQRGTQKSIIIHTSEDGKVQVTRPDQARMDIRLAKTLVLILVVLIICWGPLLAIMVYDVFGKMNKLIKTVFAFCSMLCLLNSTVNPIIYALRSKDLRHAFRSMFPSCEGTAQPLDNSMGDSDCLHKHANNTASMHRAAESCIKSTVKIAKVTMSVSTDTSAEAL

`CCc1c(-c2nnc(C3(C(F)(F)F)CCC3)o2)nc(-c2ccc(Cl)cc2Cl)n1-c1ccc(Br)cc1` [Example 50, 2-(1-(4-Bromophenyl)-2-(2,4-dichlorophenyl)-5-ethyl-1H-imidazol-4-yl)-5-(1-(trifluoromethyl)cyclobutyl)-1,3,4-oxadiazole] was tested, and the IC50 was 0.00956 µM.

Same assay, conditions: [3H]CP-55940, brain tissue of SD rats, 30 °C for 60 min; read-out: IC50

First: CCCCC(C)c1nnc(-c2nc(-c3ccc(Cl)cc3Cl)n(-c3ccc(Cl)cc3)c2CC)s1 (centres unmarked) [Example 105, 2-(1-(4-Chlorophenyl)-2-(2,4-dichlorophenyl)-5-ethyl-1H-imidazol-4-yl)-5-(hexan-2-yl)-1,3,4-thiadiazole]
Second: CCc1c(-c2nnc(C(C)(C)C)s2)nc(-c2ccc(Cl)cc2Cl)n1-c1ccc(Cl)cc1 [Example 104, 2-tert-Butyl-5-(1-(4-chlorophenyl)-2-(2,4-dichlorophenyl)-5-ethyl-1H-imidazol-4-yl)-1,3,4-thiadiazole]
The IC50 of the first is 2-fold lower: 0.00805 µM for the first, 0.0158 µM for the second.

Compared with `CCCc1c(-c2nnc(C3(c4ccc(Cl)cc4)CC3)s2)nc(-c2ccc(Cl)cc2Cl)n1-c1ccc(Br)cc1` [Example 123, 2-(1-(4-Bromophenyl)-2-(2,4-dichlorophenyl)-5-propyl-1H-imidazol-4-yl)-5-(1-(4-chlorophenyl)cyclopropyl)-1,3,4-thiadiazole], `CCc1c(-c2nnc(C3(c4ccc(OC)cc4)CC3)s2)nc(-c2ccc(Cl)cc2Cl)n1-c1ccc(Br)cc1` [Example 132, 2-(1-(4-Bromophenyl)-2-(2,4-dichlorophenyl)-5-ethyl-1H-imidazol-4-yl)-5-(1-(4-methoxyphenyl)cyclopropyl)-1,3,4-thiadiazole] is 2.1-fold higher in IC50: 0.00448 µM for the first, 0.00921 µM for the second. The first is the more potent here.

First: CCc1c(-c2nnc(C3CCC3)s2)nc(-c2ccc(Cl)cc2Cl)n1-c1ccc(Cl)cc1 [Example 103, 2-(1-(4-Chlorophenyl)-2-(2,4-dichlorophenyl)-5-ethyl-1H-imidazol-4-yl)-5-cyclobutyl-1,3,4-thiadiazole]
Second: Cc1c(-c2nnc(C3CCC3)s2)nc(-c2ccc(Cl)cc2Cl)n1-c1ccc(Br)cc1 [Example 111, 2-(1-(4-Bromophenyl)-2-(2,4-dichlorophenyl)-5-methyl-1H-imidazol-4-yl)-5-cyclobutyl-1,3,4-thiadiazole]
The IC50 of the first is 1.7-fold lower: 0.0161 µM for the first, 0.0278 µM for the second.

First: Cc1c(-c2ncc(C(C)(C)C)s2)nc(-c2ccc(Cl)cc2Cl)n1-c1ccc(Br)cc1 [Example 200, 2-(1-(4-Bromophenyl)-2-(2,4-dichlorophenyl)-5-methyl-1H-imidazol-4-yl)-5-tert-butylthiazole]
Second: Cc1c(-c2nnc(C3(C(F)(F)F)CCC3)s2)nc(-c2ccc(Cl)cc2Cl)n1-c1ccc(Br)cc1 [Example 137, 2-(1-(4-Bromophenyl)-2-(2,4-dichlorophenyl)-5-methyl-1H-imidazol-4-yl)-5-(1-(trifluoromethyl)cyclobutyl)-1,3,4-thiadiazole]
The IC50 of the first is 1.9-fold higher: 0.016 µM for the first, 0.00852 µM for the second. The second is the more potent here.

Going from `FC(F)(F)C1(c2nnc(-c3nc(-c4ccc(Cl)cc4Cl)n(-c4ccc(Br)cc4)c3Cn3cncn3)s2)CC1` [Example 165, 2-(5-((1H-1,2,4-Triazol-1-yl)methyl)-1-(4-bromophenyl)-2-(2,4-dichlorophenyl)-1H-imidazol-4-yl)-5-(1-(trifluoromethyl)cyclopropyl)-1,3,4-thiadiazole] to `FC(F)(F)C1(c2nnc(-c3nc(-c4ccccc4Cl)n(-c4ccc(Br)cc4)c3Cn3cncn3)o2)CCC1` [Example 80, 2-(5-((1H-1,2,4-Triazol-1-yl)methyl)-1-(4-bromophenyl)-2-(2-chlorophenyl)-1H-imidazol-4-yl)-5-(1-(trifluoromethyl)cyclobutyl)-1,3,4-oxadiazole], the IC50 falls from 0.00559 µM to 0.00336 µM (1.7-fold). The second is the more potent here.

Going from `CCCc1c(-c2nnc(C3(c4ccc(Cl)cc4)CCC3)o2)nc(-c2ccc(Cl)cc2Cl)n1-c1ccc(Cl)cc1` [Example 38, 2-(1-(4-Chlorophenyl)-2-(2,4-dichlorophenyl)-5-propyl-1H-imidazol-4-yl)-5-(1-(4-chlorophenyl)cyclobutyl)-1,3,4-oxadiazole] to `CCCc1c(-c2nnc(C3CCC3)o2)nc(-c2ccc(Cl)cc2Cl)n1-c1ccc(Cl)cc1` [Example 36, 2-(1-(4-Chlorophenyl)-2-(2,4-dichlorophenyl)-5-propyl-1H-imidazol-4-yl)-5-cyclobutyl-1,3,4-oxadiazole], the IC50 rises from 0.0117 µM to 0.0601 µM (5.1-fold). The first is the more potent here.

For `Cc1c(-c2ncc(CC(C)C)o2)nc(-c2ccc(Cl)cc2Cl)n1-c1ccc(Cl)cc1` [Example 184, 2-(1-(4-Chlorophenyl)-2-(2,4-dichlorophenyl)-5-methyl-1H-imidazol-4-yl)-5-isobutyloxazole], the IC50 was 0.0131 µM.
